Data reported in patent US8975398B2, “NAMPT inhibitors” (AbbVie Inc., priority 2012, dated 2015).

Assays:
NAMPT = NAMPT (Homo sapiens, UniProt P43490); assay: Time-Resolved Fluorescence Resonance Energy Transfer (TR-FRET) Binding Assay of NAMPT with PRPP; conditions: 2 nM NAMPT, 2 nM probe, 200 uM PRPP and 2.5 mM ATP, equilibrated 16 hours
How it was run: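 Final mix: 2 nM NAMPT, 2 nM probe, 1 nM Tb-anti-His antibody, 200 uM PRPP, 2.5 mM ATP, 2% DMSO in 1× assay buffer. Equilibrated 16 hours before TR-FRET read, allowing possible enzymatic modification of compounds.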

[1] = target: NAMPT (human, recombinant, C-terminally His-tagged) (Homo sapiens, UniProt P43490); assay: Time-Resolved Fluorescence Resonance Energy Transfer (TR-FRET) Binding Assay of NAMPT; conditions: 6.8 nM NAMPT, 200 nM probe, equilibrated 3 hours, absence of substrates
Sequence of NAMPT (human, recombinant, C-terminally His-tagged) (P43490 whole entry): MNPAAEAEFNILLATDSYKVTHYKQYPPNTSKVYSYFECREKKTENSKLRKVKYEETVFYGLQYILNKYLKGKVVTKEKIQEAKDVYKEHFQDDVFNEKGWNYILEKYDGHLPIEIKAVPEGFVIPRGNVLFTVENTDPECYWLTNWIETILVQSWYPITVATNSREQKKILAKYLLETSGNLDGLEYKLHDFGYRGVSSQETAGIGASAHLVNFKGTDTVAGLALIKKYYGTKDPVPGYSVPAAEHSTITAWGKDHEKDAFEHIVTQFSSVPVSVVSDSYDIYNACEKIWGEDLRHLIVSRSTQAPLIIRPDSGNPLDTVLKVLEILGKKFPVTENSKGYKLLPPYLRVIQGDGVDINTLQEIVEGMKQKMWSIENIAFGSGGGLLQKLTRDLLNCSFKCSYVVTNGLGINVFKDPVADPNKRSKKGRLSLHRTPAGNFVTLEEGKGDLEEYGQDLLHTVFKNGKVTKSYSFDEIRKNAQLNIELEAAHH
How it was run: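 Recombinant C-terminally His-tagged human NAMPT (6.8 nM) incubated 3 h at room temperature with 200 nM Oregon Green 488–labelled nicotinamide-competitive probe and 1 nM Tb-anti-His antibody in HEPES pH 7.5, 2% DMSO. TR-FRET ratio Em520/Em495 normalized to controls; IC50 from four-parameter logistic fit.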

Sequence of NAMPT (P43490 whole entry): as above

IC50 (NAMPT) [nM] | IC50 [1] [nM] | SMILES
0.457 | 30.8 | COc1cccc(C(=O)N2CCC(c3ccc(NC(=O)C4CN(c5cccnn5)C4)cc3)CC2)c1 [Example 346, N-{4-[1-(3-methoxybenzoyl)piperidin-4-yl]phenyl}-1-(pyridazin-3-yl)azetidine-3-carboxamide]
0.334 | 36.9 | O=C(Nc1ccc(C2CCN(C(=O)c3ccc(Cl)c(Cl)c3)CC2)cc1)C1CN(c2cccnn2)C1 [Example 364, N-{4-[1-(3,4-dichlorobenzoyl)piperidin-4-yl]phenyl}-1-(pyridazin-3-yl)azetidine-3-carboxamide]
0.798 | 10.4 | O=C(Nc1ccc(C2CCN(C(=O)c3cc(Cl)ccc3Cl)CC2)cc1)C1CN(c2cccnn2)C1 [Example 363, N-{4-[1-(2,5-dichlorobenzoyl)piperidin-4-yl]phenyl}-1-(pyridazin-3-yl)azetidine-3-carboxamide]
84.7 | 104 | O=C(Nc1ccc(OC2CCN(C(=O)CC3CCOCC3)CC2)cc1)C1CN(c2cnccc2C(F)(F)F)C1 [Example 7, N-(4-{[1-(tetrahydro-2H-pyran-4-ylacetyl)piperidin-4-yl]oxy}phenyl)-1-[4-(trifluoromethyl)pyridin-3-yl]azetidine-3-carboxamide]
0.925 | 192 | O=C(Nc1ccc(OC2CCN(C(=O)Cc3cccc(C(F)(F)F)c3)CC2)cc1)C1CN(c2cccnn2)C1 [Example 240, 1-(pyridazin-3-yl)-N-{4-[(1-{[3-(trifluoromethyl)phenyl]acetyl}piperidin-4-yl)oxy]phenyl}azetidine-3-carboxamide]
0.761 | 5.05 | O=C(Nc1ccc(C2CCN(C(=O)c3ccccc3)CC2)cc1)C1CN(c2cccnc2)C1 [Example 26, N-[4-(1-benzoylpiperidin-4-yl)phenyl]-1-(pyridin-3-yl)azetidine-3-carboxamide]
1.08 | 87.3 | CC(C)CC(=O)N1CCC(Oc2ccc(NC(=O)C3CN(c4cccnc4)C3)cc2)CC1 [Example 45, N-(4-{[1-(3-methylbutanoyl)piperidin-4-yl]oxy}phenyl)-1-(pyridin-3-yl)azetidine-3-carboxamide]
0.398 | 5.03 | O=C(Nc1ccc(C2CCN(C(=O)c3ccsc3)CC2)cc1)C1CN(c2cccnc2)C1 [Example 109, 1-(pyridin-3-yl)-N-{4-[1-(thiophen-3-ylcarbonyl)piperidin-4-yl]phenyl}azetidine-3-carboxamide]
5.37 | 456 | CC(C)C(=O)N1CCC(c2ccc(NC(=O)[C@H]3CCN(c4cccnn4)C3)cc2)CC1 [Example 310, (3S)—N-{4-[1-(2-methylpropanoyl)piperidin-4-yl]phenyl}-1-(pyridazin-3-yl)pyrrolidine-3-carboxamide]
66.4 | 127 | O=C(Nc1ccc(OC2CCN(C(=O)c3cccc(F)c3)CC2)cc1)C1CN(c2ccnnc2)C1 [Example 286, N-(4-{[1-(3-fluorobenzoyl)piperidin-4-yl]oxy}phenyl)-1-(pyridazin-4-yl)azetidine-3-carboxamide]
17.3 | 26.2 | CC(C)C(=O)N1CCC(c2ccc(NC(=O)C3CN(c4ccnnc4)C3)cc2)CC1 [Example 528, N-{4-[1-(2-methylpropanoyl)piperidin-4-yl]phenyl}-1-(pyridazin-4-yl)azetidine-3-carboxamide]
43.8 | 6.53 | Cc1ncccc1N1CC(C(=O)Nc2ccc(C3CCN(C(=O)c4ccccc4F)CC3)cc2)C1 [Example 150, N-{4-[1-(2-fluorobenzoyl)piperidin-4-yl]phenyl}-1-(2-methylpyridin-3-yl)azetidine-3-carboxamide]
0.959 | 150 | O=C(Nc1ccc(OC2CCN(C(=O)c3ccsc3)CC2)cc1)C1CN(c2cccnn2)C1 [Example 223, 1-(pyridazin-3-yl)-N-(4-{[1-(thiophen-3-ylcarbonyl)piperidin-4-yl]oxy}phenyl)azetidine-3-carboxamide]
